Experimental data reported in the NIST ThermoML archive (doi:10.1016/j.fluid.2010.03.001).

Assay: xn = mol fraction of the nth substance listed
Conditions: 101 kPa, Liquid; for viscosity: Concentric cylinders viscometry; for mass density: Vibrating tube method

C=C(C)[C@H]1CC=C(C)CC1 [(R)-1-methyl-4-(1-methylethenyl)cyclohexene] + CCCCCO
Conditions | mass density [kg/m3] | viscosity [mPa·s]
293.15 K, x2 = 0 | 841.5 | 0.902
293.15 K, x2 = 0.092 | 839.4 | 0.935
293.15 K, x2 = 0.1644 | 837.8 | 0.983
293.15 K, x2 = 0.2748 | 835.4 | 1.079
293.15 K, x2 = 0.3592 | 833.5 | 1.182
293.15 K, x2 = 0.4565 | 831.2 | 1.34
293.15 K, x2 = 0.5542 | 828.8 | 1.564
293.15 K, x2 = 0.6068 | 827.4 | 1.717
293.15 K, x2 = 0.647 | 826.4 | 1.851
293.15 K, x2 = 0.7365 | 823.8 | 2.213
293.15 K, x2 = 0.8234 | 821.1 | 2.66
293.15 K, x2 = 0.9105 | 818.1 | 3.26
303.15 K, x2 = 0 | 833.6 | 0.793
303.15 K, x2 = 0.092 | 831.4 | 0.814
303.15 K, x2 = 0.1644 | 829.8 | 0.85
303.15 K, x2 = 0.2748 | 827.4 | 0.923
303.15 K, x2 = 0.3592 | 825.4 | 1
303.15 K, x2 = 0.4565 | 823.2 | 1.115
303.15 K, x2 = 0.5542 | 820.8 | 1.275
303.15 K, x2 = 0.6068 | 819.5 | 1.384
303.15 K, x2 = 0.647 | 818.4 | 1.477
303.15 K, x2 = 0.7365 | 816 | 1.73
303.15 K, x2 = 0.8234 | 813.4 | 2.055
303.15 K, x2 = 0.9105 | 810.5 | 2.473
313.15 K, x2 = 0 | 825.8 | 0.702
313.15 K, x2 = 0.092 | 823.4 | 0.716
313.15 K, x2 = 0.1644 | 821.8 | 0.743
313.15 K, x2 = 0.2748 | 819.4 | 0.799
313.15 K, x2 = 0.3592 | 817.4 | 0.854
313.15 K, x2 = 0.4565 | 815.2 | 0.942
313.15 K, x2 = 0.5542 | 812.9 | 1.057
313.15 K, x2 = 0.6068 | 811.6 | 1.137
313.15 K, x2 = 0.647 | 810.6 | 1.201
313.15 K, x2 = 0.7365 | 808.2 | 1.386
313.15 K, x2 = 0.8234 | 805.8 | 1.617
313.15 K, x2 = 0.9105 | 803 | 1.915
323.15 K, x2 = 0 | 817.9 | 0.628
323.15 K, x2 = 0.092 | 815.4 | 0.635
323.15 K, x2 = 0.1644 | 813.7 | 0.655
323.15 K, x2 = 0.2748 | 811.3 | 0.699
323.15 K, x2 = 0.3592 | 809.3 | 0.737
323.15 K, x2 = 0.4565 | 807.1 | 0.805
323.15 K, x2 = 0.5542 | 804.8 | 0.891
323.15 K, x2 = 0.6068 | 803.5 | 0.949
323.15 K, x2 = 0.647 | 802.5 | 0.995
323.15 K, x2 = 0.7365 | 800.2 | 1.129
323.15 K, x2 = 0.8234 | 797.9 | 1.298
323.15 K, x2 = 0.9105 | 795.3 | 1.51
333.15 K, x2 = 0 | 809.9 | 0.566
333.15 K, x2 = 0.092 | 807.3 | 0.568
333.15 K, x2 = 0.1644 | 805.5 | 0.582
333.15 K, x2 = 0.2748 | 803 | 0.616
333.15 K, x2 = 0.3592 | 801 | 0.644
333.15 K, x2 = 0.4565 | 798.8 | 0.696
333.15 K, x2 = 0.5542 | 796.5 | 0.761
333.15 K, x2 = 0.6068 | 795.2 | 0.803
333.15 K, x2 = 0.647 | 794.2 | 0.837
333.15 K, x2 = 0.7365 | 792.2 | 0.937
333.15 K, x2 = 0.8234 | 789.8 | 1.06
333.15 K, x2 = 0.9105 | 787.3 | 1.219
343.15 K, x2 = 0 | 801.9 | 0.5
343.15 K, x2 = 0.092 | 799.2 | 0.511
343.15 K, x2 = 0.1644 | 797.2 | 0.52
343.15 K, x2 = 0.2748 | 794.6 | 0.546
343.15 K, x2 = 0.3592 | 792.6 | 0.567
343.15 K, x2 = 0.4565 | 790.4 | 0.608
343.15 K, x2 = 0.5542 | 788.2 | 0.657
343.15 K, x2 = 0.6068 | 787 | 0.688
343.15 K, x2 = 0.647 | 786 | 0.713
343.15 K, x2 = 0.7365 | 783.7 | 0.786
343.15 K, x2 = 0.8234 | 781.5 | 0.878
343.15 K, x2 = 0.9105 | 779.1 | 0.996
353.15 K, x2 = 0 | 793.6 | 0.452
353.15 K, x2 = 0.092 | 790.8 | 0.462
353.15 K, x2 = 0.1644 | 788.9 | 0.468
353.15 K, x2 = 0.2748 | 786.2 | 0.487
353.15 K, x2 = 0.3592 | 784.2 | 0.502
353.15 K, x2 = 0.4565 | 781.9 | 0.534
353.15 K, x2 = 0.5542 | 779.5 | 0.571
353.15 K, x2 = 0.6068 | 778.4 | 0.594
353.15 K, x2 = 0.647 | 777.4 | 0.615
353.15 K, x2 = 0.7365 | 775.2 | 0.669
353.15 K, x2 = 0.8234 | 773.1 | 0.737
353.15 K, x2 = 0.9105 | 770.6 | 0.827
363.15 K, x2 = 0 | 785.4 | 0.413
363.15 K, x2 = 0.092 | 782.5 | 0.421
363.15 K, x2 = 0.1644 | 780.4 | 0.424
363.15 K, x2 = 0.2748 | 777.7 | 0.438
363.15 K, x2 = 0.3592 | 775.6 | 0.448
363.15 K, x2 = 0.4565 | 773.2 | 0.473
363.15 K, x2 = 0.5542 | 770.9 | 0.502
363.15 K, x2 = 0.6068 | 769.6 | 0.519
363.15 K, x2 = 0.647 | 768.6 | 0.535
363.15 K, x2 = 0.7365 | 766.5 | 0.576
363.15 K, x2 = 0.8234 | 764.4 | 0.627
363.15 K, x2 = 0.9105 | 762 | 0.691
373.15 K, x2 = 0 | 777.1 | 0.382
373.15 K, x2 = 0.092 | 774.3 | 0.385
373.15 K, x2 = 0.1644 | 771.9 | 0.386
373.15 K, x2 = 0.2748 | 769 | 0.395
373.15 K, x2 = 0.3592 | 766.9 | 0.402
373.15 K, x2 = 0.4565 | 764.4 | 0.421
373.15 K, x2 = 0.5542 | 762 | 0.443
373.15 K, x2 = 0.6068 | 760.7 | 0.456
373.15 K, x2 = 0.647 | 759.7 | 0.469
373.15 K, x2 = 0.7365 | 757.7 | 0.499
373.15 K, x2 = 0.8234 | 755.7 | 0.538
373.15 K, x2 = 0.9105 | 753.1 | 0.584
